Calls of active or inactive are those of the source. No cut-off for these calls is given here.

Test [1] deals with T1, Protein cereblon/Hematopoietic prostaglandin D synthase (Homo sapiens, UniProt O60760+Q96SW2). The test can be described thus: PROTAC activity at H-PGDS/CRBN in human KU812 cells assessed as H-PGDS degradation measured after 6 hrs by Western blot analysis. It is filed as cell-based. Conditions: for DC50: ku812 cell line.
In test [2] the target is T1, Protein cereblon/Hematopoietic prostaglandin D synthase. The test can be described thus: PROTAC activity at H-PGDS/CRBN in human KU812 cells assessed as H-PGDS degradation measured after 24 hrs by Western blot analysis. Conditions: KU812 cell line. The test is classed as cell-based.
Target sequence in this assay (O60760 whole entry, looked up): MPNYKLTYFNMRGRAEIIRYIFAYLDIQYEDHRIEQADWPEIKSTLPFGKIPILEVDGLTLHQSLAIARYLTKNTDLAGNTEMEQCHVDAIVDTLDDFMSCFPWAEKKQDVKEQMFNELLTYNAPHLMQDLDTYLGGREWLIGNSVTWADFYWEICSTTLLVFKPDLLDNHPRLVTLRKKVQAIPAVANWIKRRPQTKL
Target sequence in this assay (Q96SW2 whole entry, looked up): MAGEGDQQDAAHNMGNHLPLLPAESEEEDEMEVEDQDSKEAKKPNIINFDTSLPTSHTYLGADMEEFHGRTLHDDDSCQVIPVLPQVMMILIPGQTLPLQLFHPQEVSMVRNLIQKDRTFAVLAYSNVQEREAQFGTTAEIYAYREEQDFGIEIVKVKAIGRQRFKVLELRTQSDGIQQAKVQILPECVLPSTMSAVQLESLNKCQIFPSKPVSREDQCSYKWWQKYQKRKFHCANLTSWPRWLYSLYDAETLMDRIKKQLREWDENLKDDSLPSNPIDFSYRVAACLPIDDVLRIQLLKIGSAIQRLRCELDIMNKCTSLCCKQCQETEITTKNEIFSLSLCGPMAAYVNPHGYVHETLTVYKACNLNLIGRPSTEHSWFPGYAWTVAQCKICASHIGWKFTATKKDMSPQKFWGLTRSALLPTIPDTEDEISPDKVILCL
The target is the same in test [3]. Briefly: PROTAC activity at H-PGDS/CRBN in human MEG01s cells assessed as H-PGDS degradation measured after 6 to 24 hrs by Western blot analysis. It is filed as cell-based. As to conditions: time 6-24 hrs. (A western blot detects proteins with antibodies after separation by electrophoresis.)
Target sequence in this assay (O60760 whole entry, looked up): as the sequence (O60760 whole entry, looked up) above
Target sequence in this assay (Q96SW2 whole entry, looked up): as the sequence (Q96SW2 whole entry, looked up) above
The target in test [4] is Hematopoietic prostaglandin D synthase (Homo sapiens, UniProt O60760). Briefly: Inhibition of H-PGDS (unknown origin) using fluorescent probe by competition binding assay.
Sequence of Hematopoietic prostaglandin D synthase (O60760 whole entry): as the sequence (O60760 whole entry, looked up) above
Test [5] has as its system KU812. Briefly: Effect on H-PGDS mRNA level in human KU812 cells measured up to 10000 pM incubated for 6 hrs by quantitative RT-PCR analysis. The test is classed as functional, cell-based.
In test [6] the target is T1, Protein cereblon/Hematopoietic prostaglandin D synthase. Briefly: PROTAC activity at H-PGDS/CRBN in human KU812 cells assessed as H-PGDS degradation in presence of pomalidomide measured after 6 hrs by Western blot analysis. The test is classed as cell-based. Conditions: KU812 cell line.
Target sequence in this assay (O60760 whole entry, looked up): as above
Target sequence in this assay (Q96SW2 whole entry, looked up): as the sequence (Q96SW2 whole entry, looked up) above
Test [7] shares this target. The test can be described thus: PROTAC activity at H-PGDS/CRBN in human KU812 cells assessed as H-PGDS degradation in presence of MG132 at 100 pM measured after 6 hrs by Western blot analysis. It is filed as cell-based. As to conditions: KU812 cell line.
Target sequence in this assay (O60760 whole entry, looked up): as the sequence (O60760 whole entry, looked up) above
Target sequence in this assay (Q96SW2 whole entry, looked up): as the sequence (Q96SW2 whole entry, looked up) above
Test [8] shares this target. Briefly: PROTAC activity at H-PGDS/CRBN in human KU812 cells assessed as H-PGDS degradation in presence of MLN7243 at 100 pM measured after 6 hrs by Western blot analysis. It is filed as cell-based. As to conditions: KU812 cell line.
Target sequence in this assay (O60760 whole entry, looked up): as the sequence (O60760 whole entry, looked up) above
Target sequence in this assay (Q96SW2 whole entry, looked up): as the sequence (Q96SW2 whole entry, looked up) above
The target is the same in test [9]. The test can be described thus: PROTAC activity at H-PGDS/CRBN in human KU812 cells assessed as reduction in H-PGDS level at 100 pM measured after 6 hrs by Western blot analysis relative to control. The test is classed as cell-based. Also noted: scale not given: the % may be the effect or the level left. As to conditions: KU812 cell line.
Target sequence in this assay (O60760 whole entry, looked up): as the sequence (O60760 whole entry, looked up) above
Target sequence in this assay (Q96SW2 whole entry, looked up): as the sequence (Q96SW2 whole entry, looked up) above
For test [10] the target is unchanged. The test can be described thus: PROTAC activity at H-PGDS/CRBN in human KU812 cells assessed as reduction in H-PGDS level at 10 pM measured after 6 hrs by Western blot analysis relative to control. As to conditions: KU812 cell line. Also noted: scale not given: the % may be the effect or the level left. The test is classed as cell-based.
Test [11] has as its system KU812. The test can be described thus: Suppression of PGD2 production in human KU812 cells measured in presence of compound 43 up to 3000 pM incubated for 6 hrs by LC-MS analysis. The test is classed as functional, cell-based.

What is called DC50 is the concentration at which degradation of the target reaches its halfway point. What is called IC50 is the concentration needed to halve the response being measured. As for `O=C1CCC(N2C(=O)c3cccc(N4CCN(C(=O)C5CCN(c6ccc(NC(=O)c7cnc(Oc8ccccc8)nc7)cc6)CC5)CC4)c3C2=O)C(=O)N1` (stereo not given), the DC50 in [1] worked out at 0.0173 nM. The outcome in test [2], in [5], in test [6], in test [7] and in [8] was inactive. In addition, the outcome in test [3] and in test [11] was Active. Further, the IC50 in [4] came out at 170 nM. The Activity in [9] is 30.8%; in test [10], 12.9%.

Consider `Nc1cccc2c1C(=O)N(C1CCC(=O)NC1=O)C2=O` (stereo not given), for which the outcome in test [11] was inactive.

As for `O=C1CCC(N2C(=O)c3cccc(NCCNC(=O)C4CCN(c5ccc(NC(=O)c6cnc(Oc7ccccc7)nc6)cc5)CC4)c3C2=O)C(=O)N1` (stereo not given), the inhibition result in test [4] was “inactive”.

For `O=C1CCC(N2C(=O)c3cccc(N4CCN(c5ccc(NC(=O)c6cnc(Oc7ccccc7)nc6)cc5)CC4)c3C2=O)C(=O)N1` (stereo not given), the outcome in test [1] (KU812 cell line) was inactive. In addition, in [4], the inhibition result was “inactive”.

`CN1C(=O)CCC(N2C(=O)c3cccc(N4CCN(C(=O)C5CCN(c6ccc(NC(=O)c7cnc(Oc8ccccc8)nc7)cc6)CC5)CC4)c3C2=O)C1=O` (stereo not given): the DC50 in test [1] came to 0.024 nM. The IC50 in [4] was 140 nM. Besides, the result in [11] was Active.

In turn, `O=C(Nc1ccc(N2CCC(C(=O)N3CCOCC3)CC2)cc1)c1cnc(Oc2ccccc2)nc1` yielded an IC50 in test [4] of 170 nM. For the same molecule, the outcome in test [11] was Active.

Source of the values: ChEMBL document CHEMBL5055658, “Discovery of a Highly Potent and Selective Degrader Targeting Hematopoietic Prostaglandin D Synthase via In Silico Design” (J Med Chem, 2021).
